Data from US20070135438A1, “INHIBITORS OF HISTONE DEACETYLASE FOR THE TREATMENT OF DISEASE” (KALYPSYS, INC., priority 2005, published 2007).

Columns and labels:
HDAC in cells = assay: Cellular HDAC inhibition (cellular histone hyperacetylation assays); type: cell-based; details: cellular assay, cell line not stated
Procedure: 2) Cellular Histone Hyperacetylation Assays:
These two secondary assays evaluates a compound's ability to inhibit HDAC in cells by measuring cellular histone acetylation levels. The cytoblot facilitates quantitative EC50 information for cellular HDAC inhibition. Transformed cell lines (e.g. HeLa, A549, MCF-7) are cultured under standard media and culture conditions prior to plating.
Cells (approx. 2,500/well) are allowed to adhere 10-24 hours to wells of a 384-well Greiner PS assay plate in media containing 1-5% serum. Cells are treated with appropriate compound and specific concentrations for 0 to 24 hours. Cells are washed once with PBS (60 μL) and then fixed (95% ethanol, 5% acetic acid or 2% PFA) for 1 minute at RT (30 μL). Cells are blocked with 1% BSA for 1 hour and washed and stained with antibody (e.g. anti-Acetylated Histone H3, Upstate Biotechnology), followed by washing and incubation with an appropriate secondary antibody conjugated to HRP or fluorophore. For luminescence assays, signal is generated using Luminol substrate (Santa Cruz Biotechnology) and detected using an Aquest plate reader (Molecular Devices).
Cells (4×10^5/well) are plated into Corning 6-well dish and allowed to adhere overnight. Cells are treated with compound at appropriate concentration for 12-18 hours at 37° C. Cells are washed with PBS on ice. Cells are dislodged with rubber policeman and lysed in buffer containing 25 mM Tris, pH7.6; 150 mM NaCl, 25 mM MgCl2, 1% Tween-20, and nuclei collected by centrifugation (7500 g). Nuclei are washed once in 25 mM Tris, pH7.6; 10 mM EDTA, collected by centrifugation (7500 g). Supernatant is removed and histones are extracted using 0.4 M HCl. Samples are centrifuged at 14000 g and supernatants are precipitated in 1 ml cold acetone. The histone pellet is dissolved in water and histones are separated and analyzed by SDS-PAGE Coomassie and immunoblotting (anti-acetylated histone antibodies, Upstate Biotechnology) using standard techniques.

HDAC = assay: In vitro HDAC-inhibition assay (Fluor de Lys fluorescent substrate); type: biochemical; details: HDAC enzyme source
Procedure: 1) In Vitro HDAC-Inhibition Assay:
This assay measures a compound's ability to inhibit acetyl-lysine deacetylation in vitro and was used as both a primary screening method as well as for IC50 determinations of confirmed inhibitors. The assay is performed in vitro using an HDAC enzyme source (e.g. partially purified nuclear extract or immunopurified HDAC complexes) and a proprietary fluorescent substrate/developer system (HDAC Quantizyme Fluor de Lys Fluorescent Activity Assay, BIOMOL). The assay is run in 1,536-well Greiner white-bottom plates using the following volumes and order of addition:
Step 1: Enzyme (2.5 μL) source added to plate (from refrigerated container)
Step 2: Compounds (50 nL) added with pin transfer device
Step 3: Fluor de Lys (2.5 μL) substrate added, incubate at RT, 30 minutes
Step 4: Developer (5 μL) solution is added (containing TSA), to stop reaction
Step 5: Plate Reader—data collection
The deacetylated fluorophore is excited with 360 nm light and the emitted light (460 nm) is detected on an automated fluorometric plate reader (Aquest, Molecular Devices).

Structure (SMILES)	IC50 (HDAC in cells) [µM]	IC50 (HDAC) [µM]
CC(=O)SCC(=O)c1ccc(NS(=O)(=O)c2ccc(OCCCN(C)C)cc2)nc1 [Example 1, Thioacetic acid S-(2-{6-[4-(3-dimethylamino-propoxy)-benzenesulfonylamino]-pyridin-3-yl}-2-oxo-ethyl)ester]	< 1	< 1
CC(=O)SCC(=O)c1ccc(NS(=O)(=O)c2ccc(OCCN(C)C)cc2)nc1 [Example 2, Thioacetic acid S-(2-{6-[4-(2-dimethylamino-ethoxy)-benzenesulfonylamino]-pyridin-3-yl}-2-oxo-ethyl) ester]	< 1	< 1
CC(=O)SCC(=O)c1ccc(NS(=O)(=O)c2ccc(OCC(C)(C)CN(C)C)cc2)nc1 [Example 3, Thioacetic acid S-(2-{6-[4-(3-dimethylamino-2,2-dimethyl-propoxy)-benzenesulfonylamino]-pyridin-3-yl}-2-oxo-ethyl) ester]	< 1	–
CC(=O)SCC(=O)c1ccc(NS(=O)(=O)c2ccc(OCCCCN(C)C)cc2)nc1 [Example 4, Thioacetic acid S-(2-{6-[4-(4-dimethylamino-butoxy)-benzenesulfonylamino]-pyridin-3-yl}-2-oxo-ethyl) ester]	< 1	< 1
